Laboratory results from patent US4873346A, “Substituted benzothiazoles, benzimidazoles, and benzoxazoles” (The Upjohn Company, priority 1985, dated 1989).
Where a name gives a salt, the structure may show the parent alone.

Key:
mucus secretion = assay: canine tracheal secretion model (inhibitory effect on mucus secretion); assay type: in vivo
Procedure: Several of the compounds of the present invention were also tested for their inhibitory effect on mucus secretion in the canine tracheal secretion model.

lipoxygenase = lipoxygenase inhibition, oxygen uptake of washed human platelets after arachidonic acid; assay type: cell-based
Procedure: Some ot the compounds of the present invention were also tested for lipoxygenase inhibition. Arachidonic acid is added to washed human platelets and the oxygen uptake is measured using oxygraph cells. A decrease of oxygen uptake versus the control cell indicates inhibition of lipoxygenase. For a full description of the procedure see, Wallach, et al., Biochim, Biophys. Acta. 231:445 (1976).

SRS-A formation = assay: SRS-A inhibition in rat mononuclear cells challenged with calcium ionophore; assay type: cell-based; settings: cysteine
Procedure: This test is conducted in rat mononuclear cells incubated in the presence of cysteine and challenged with a calcium ionophore (which induces SRS-A formation).

Compound	inhibition of mucus secretion (in words) (mucus secretion)	further results
COC(=O)CCCCCNc1nc2ccc(O)cc2s1 [6-[(6-hydroxy-2-benzothiazolyl)aminohexanoic acid methyl ester]		inhibition on Indomethacin blocked/Arachidonic Acid (AA) induced mucus secretion (mucus secretion; Indomethacin blocked/AA induced): 100%; inhibition on baseline mucus secretion (mucus secretion; baseline): 21.8%; inhibition on hypoxia mucus secretion (mucus secretion; hypoxia): 63.4%
C=CCCCCSc1nc2ccc(O)cc2[nH]1 [2-(5-hexenylthio)-H-benzimidazol-6-ol, 2-(5-Hexenylthio)-1H-benzimidazol-6-ol]	caused inhibition	
CCN(CC)CCCNc1nc2ccc(O)cc2s1 [2-[[3-(Diethylamino)propyl]amino]-6-benzothiazolol, hydroquinone dihydrochloride salt]	caused inhibition	
C=CCNc1nc2ccc(O)cc2s1 [2-(2-propenylamino)-6-benzothiazolol, 2-(2-Propenylamino)-6-benzothiazolol]	caused inhibition of mucus secretion	inhibition of the lipoxygenase system (in words) (lipoxygenase): active; inhibition of the leukotriene system (in words) (SRS-A formation): active
CCN(CC)CCCNc1nc2ccc(O)cc2s1.Cl.Cl [2-[[3-(Diethylamino)propyl]amino]-6-benzothiazolol Dihydrochloride]	caused inhibition	
C=CCCCCSc1nc2ccc(O)cc2s1.O=C(O)/C=C\C(=O)O [2-(5-hexenylthio)-6-benzothiazolol maleic acid salt]	caused inhibition	
COC(=O)CCCCCSc1nc2ccc(NC(=O)CCC(=O)O)cc2s1 [6-[[6-[(3-Carboxy-1-oxopropyl)amino]-2-benzothiazolyl]thio]hexanoic acid methyl ester, tromethamine salt]	caused inhibition	
